Data on 13 compounds can be found in patent EP4678638A1, “NEW E3 UBIQUITIN LIGASE LIGAND, PROTEIN DEGRADATION AGENT AND USE THEREOF” (priority 2023, dated 2024).

Where only a bound is given, the exact number is not on record here.

For one experiment, the system named is H2228. Put plainly: CCK-8 proliferation, NCI-H2228 (H2228). The following applies: Homo sapiens, NCI-H2228; Table B6, compounds designed based on the ALK inhibitors; H2228 cells; read-out: Inhibitory activity (IC50, nM) on tumor cell proliferation, H2228. Type of experiment: cell-based. An outline of the steps:
(§1)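 Tumor cells were cultured at 37°C with 5% CO2, seeded, and after 24h treated with compounds at 10 concentrations starting at 10µM (5-fold serial dilutions).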

For another experiment, the system named is MCF7. Put plainly: CCK-8 proliferation, MCF7 (MCF-7). Type of experiment: cell-based. The following applies: Homo sapiens, MCF7; Table B6, compounds designed based on the ALK inhibitors; MCF-7 cells; read-out: Inhibitory activity (IC50, nM) on tumor cell proliferation, MCF-7. An outline of the steps: as §1
A further experiment deals with SR. Kind of experiment: CCK-8 proliferation, SR. Type of experiment: cell-based, Human. The following applies: Homo sapiens; Table B6, compounds designed based on the ALK inhibitors; SR cells; read-out: Inhibitory activity (IC50, nM) on tumor cell proliferation, SR. An outline of the steps: as §1
The next experiment relates to MDA-MB-231. Put plainly: CCK-8 proliferation, MDA-MB-231. The following applies: Homo sapiens; Table B6, compounds designed based on the ALK inhibitors; MDA-MB-231 cells; read-out: Inhibitory activity (IC50, nM) on tumor cell proliferation, MDA-MB-231. Type of experiment: cell-based. The method, then:
The tumor cells used herein were cultured in a cell culture medium listed in table A1 at 37°C in an incubator with 5% CO2. Prior to experimentation, all cell lines used were correctly identified by STR profiling, and tested negative for mycoplasma contamination using a mycoplasma detection kit through routine screenings. Table A1. Tumor cells and cell culture medium used in the present disclosure
IC50 values of the compounds of the present disclosure (including the compounds in Table 1, and compounds of examples) were measured using the Meilun Cell Counting Kit-8 kit from Dalian Meilun Biotech Co., Ltd. Assay details are as follows: tumor cells were seeded in a 96-well plate at a density listed in Table A2. After 24h, 100 µL of the inoculated cells were treated with 0.5µL of the compounds of the present disclosure (including the compounds in Tables 1 and 2, and compounds of examples) at 10 different successively decreasing concentrations (starting at the highest concentration of 10µM; 5-fold serial dilutions). After the cells were treated with the compounds of the present disclosure for a period of time, the cell viability detection reagent was added to the culture medium for cell viability assessment according to the instructions provided with the CCK-8 kit. […] The growth inhibition of the compounds of the present disclosure on cells was plotted by Prism Graphpad software, and the IC50 values of the compounds of the present disclosure were calculated therefrom. […] Seeding protocol and treatment time for tumor cells

A further experiment addresses T1, ALK (Homo sapiens, UniProt Q96SW2+Q9HC35+Q9UM73).
T1 construct: evaluate the effects of the compounds of the present disclosure on the expression of target proteins in cells; endogenous in cells; host or cells: H2228
Put plainly: Western blot degradation of ALK (H2228 Cell). The following applies: Table D5. Type of experiment: cell-based. An outline of the steps:
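After compound exposure, cells were harvested and lysates run on SDS-PAGE, transferred to nitrocellulose and probed with antibodies. Remaining target (%) was computed from band grayscale relative to an internal control protein and normalised; degradation (%) was 100% minus that.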

For a further experiment, the system named is H1975. Put plainly: CCK-8 proliferation, NCI-H1975 (H1975). Type of experiment: cell-based, Human. The following applies: Homo sapiens, NCI-H1975; Table B6, compounds designed based on the ALK inhibitors; H1975 cells; read-out: Inhibitory activity (IC50, nM) on tumor cell proliferation, H1975. A digest of the protocol:
as §1

Another experiment has as its system MM.1S. Kind of experiment: CCK-8 proliferation, MM.1S. Type of experiment: cell-based. The following applies: Homo sapiens, MM1.S; Table B6, compounds designed based on the ALK inhibitors; MM.1S cells; read-out: Inhibitory activity (IC50, nM) on tumor cell proliferation, MM.1S. An outline of the steps: as §1

T1 sequence (Q9HC35+Q9UM73 fused): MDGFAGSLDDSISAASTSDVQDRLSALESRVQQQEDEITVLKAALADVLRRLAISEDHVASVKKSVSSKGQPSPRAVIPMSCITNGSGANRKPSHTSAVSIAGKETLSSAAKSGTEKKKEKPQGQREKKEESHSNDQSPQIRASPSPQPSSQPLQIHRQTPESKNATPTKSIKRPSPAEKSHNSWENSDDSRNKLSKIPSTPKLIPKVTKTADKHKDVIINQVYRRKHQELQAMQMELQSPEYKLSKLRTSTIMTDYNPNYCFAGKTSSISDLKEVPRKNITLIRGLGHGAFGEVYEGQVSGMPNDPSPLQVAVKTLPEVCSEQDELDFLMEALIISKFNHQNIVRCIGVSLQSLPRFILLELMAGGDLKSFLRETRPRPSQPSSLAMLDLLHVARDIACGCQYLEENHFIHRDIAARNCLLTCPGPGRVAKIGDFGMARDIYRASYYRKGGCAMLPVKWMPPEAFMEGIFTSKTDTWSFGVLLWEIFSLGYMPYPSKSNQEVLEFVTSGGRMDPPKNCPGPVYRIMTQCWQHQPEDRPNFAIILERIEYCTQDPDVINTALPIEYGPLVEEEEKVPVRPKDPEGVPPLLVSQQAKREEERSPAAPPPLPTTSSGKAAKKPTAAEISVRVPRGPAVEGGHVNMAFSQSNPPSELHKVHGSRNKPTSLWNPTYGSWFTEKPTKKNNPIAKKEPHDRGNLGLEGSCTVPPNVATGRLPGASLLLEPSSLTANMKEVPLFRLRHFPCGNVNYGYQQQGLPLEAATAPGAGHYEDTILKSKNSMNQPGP
T1 sequence (Q96SW2 whole entry): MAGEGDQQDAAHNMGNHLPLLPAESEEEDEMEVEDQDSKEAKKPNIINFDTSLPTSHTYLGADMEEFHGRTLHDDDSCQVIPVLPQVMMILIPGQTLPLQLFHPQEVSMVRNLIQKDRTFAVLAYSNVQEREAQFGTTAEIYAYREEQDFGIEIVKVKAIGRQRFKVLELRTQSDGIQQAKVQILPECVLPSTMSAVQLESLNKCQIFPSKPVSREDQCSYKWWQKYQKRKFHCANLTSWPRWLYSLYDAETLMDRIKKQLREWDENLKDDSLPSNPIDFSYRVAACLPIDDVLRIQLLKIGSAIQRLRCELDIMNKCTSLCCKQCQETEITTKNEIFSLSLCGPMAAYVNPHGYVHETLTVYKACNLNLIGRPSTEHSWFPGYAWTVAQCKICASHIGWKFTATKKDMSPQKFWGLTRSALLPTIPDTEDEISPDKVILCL
T1 sequence (Q16531 whole entry partner): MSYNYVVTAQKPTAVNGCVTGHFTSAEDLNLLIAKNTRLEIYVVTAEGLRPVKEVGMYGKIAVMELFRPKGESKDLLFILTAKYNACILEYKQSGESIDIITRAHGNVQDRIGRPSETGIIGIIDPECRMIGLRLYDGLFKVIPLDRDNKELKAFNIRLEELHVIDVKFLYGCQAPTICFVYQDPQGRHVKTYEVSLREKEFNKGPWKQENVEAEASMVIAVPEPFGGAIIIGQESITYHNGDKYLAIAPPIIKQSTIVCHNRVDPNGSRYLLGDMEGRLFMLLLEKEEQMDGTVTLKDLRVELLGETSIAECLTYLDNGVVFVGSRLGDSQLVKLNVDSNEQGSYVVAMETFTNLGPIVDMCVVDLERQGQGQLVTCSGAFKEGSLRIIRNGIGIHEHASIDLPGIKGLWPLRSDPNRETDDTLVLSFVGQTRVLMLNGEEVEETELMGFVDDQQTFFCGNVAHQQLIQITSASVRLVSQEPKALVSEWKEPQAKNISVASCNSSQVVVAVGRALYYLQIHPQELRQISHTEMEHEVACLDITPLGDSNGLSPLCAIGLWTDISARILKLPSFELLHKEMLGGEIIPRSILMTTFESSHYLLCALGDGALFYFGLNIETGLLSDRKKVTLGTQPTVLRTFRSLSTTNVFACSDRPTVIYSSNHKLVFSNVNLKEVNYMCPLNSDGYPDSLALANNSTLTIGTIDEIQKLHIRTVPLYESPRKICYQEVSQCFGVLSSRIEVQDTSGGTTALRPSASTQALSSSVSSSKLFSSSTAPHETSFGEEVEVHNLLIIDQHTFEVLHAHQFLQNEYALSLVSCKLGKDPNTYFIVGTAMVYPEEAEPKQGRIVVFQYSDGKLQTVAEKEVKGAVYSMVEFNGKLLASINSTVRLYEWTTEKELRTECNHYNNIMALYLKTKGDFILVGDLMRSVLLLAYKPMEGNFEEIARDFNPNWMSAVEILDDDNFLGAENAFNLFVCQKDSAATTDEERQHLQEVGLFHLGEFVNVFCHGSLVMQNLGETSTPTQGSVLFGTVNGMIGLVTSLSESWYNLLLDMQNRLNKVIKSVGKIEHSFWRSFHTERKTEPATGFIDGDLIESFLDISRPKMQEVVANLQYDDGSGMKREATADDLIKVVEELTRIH

On to `CCc1cc2c(cc1N1CCC(N3CCN(Cc4ccc(N5CCC(=O)NC5=O)c(F)c4)CC3)CC1)C(C)(C)c1[nH]c3cc(C#N)ccc3c1C2=O` [GT-07308, 8-(4-(4-(4-(2,4-dioxotetrahydropyrimidin-1(2H)-yl)-3-fluorobenzyl)piperazin-1-yl)piperidin-1-yl)-9-ethyl-6,6-dimethyl-11-oxo-6,11-dihydro-5H-benzo[b]carbazole-3-carbonitrile], for which the IC50 with H2228 lay in the range of 10 to 50 nM; in the experiment on MCF7, 500 to 1000 nM; in the experiment on SR, 10 to 50 nM; in the experiment with MDA-MB-231 it was 500 to 1000 nM.
Take `CCc1cc2c(cc1N1CCC(N3CCN(Cc4ccc(N5CCC(=O)NC5=O)cc4F)CC3)CC1)C(C)(C)c1[nH]c3cc(C#N)ccc3c1C2=O` [GT-07309, 8-(4-(4-(4-(2,4-dioxotetrahydropyrimidin-1(2H)-yl)-2-fluorobenzyl)piperazin-1-yl)piperidin-1-yl)-9-ethyl-6,6-dimethyl-11-oxo-6,11-dihydro-5H-benzo[b]carbazole-3-carbonitrile]: the IC50 is 100 to 500 nM in the experiment on H2228, 10 to 50 nM in the experiment on SR and 500 to 1000 nM in the experiment on MDA-MB-231. Also, the “Degradation of substrate protein ALK (substrate protein remaining %)” value at ALK was “A (A is defined as 0% ≤ substrate protein remaining % ≤ 80%)”.
Regarding `COc1cc(N2CCC(N3CCN(Cc4ccc(C5CCC(=O)NC5=O)cc4)CC3)CC2)ccc1Nc1ncc(Cl)c(Nc2ccccc2P(C)(C)=O)n1` (stereo not shown) [GT-07602, 3-(4-((4-(1-(4-((5-chloro-4-((2-(dimethylphosphoryl)phenyl)amino)pyrimidin-2-yl)amino)-3-methoxyphenyl)piperidin-4-yl)piperazin-1-yl)methyl)phenyl)piperidine-2,6-dione], the IC50 in the experiment with H2228 fell in the range of 10 to 50 nM; with H1975, 100 to 500 nM; with MCF7 it was 100 to 500 nM; in the experiment on SR, 1 to 10 nM; in the experiment on MM.1S, 100 to 500 nM; with MDA-MB-231, 100 to 500 nM.
`COc1cc(N2CCC(N3CCN(Cc4cccc(N5CCC(=O)NC5=O)c4)CC3)CC2)ccc1Nc1ncc(Cl)c(Nc2ccccc2P(C)(C)=O)n1` [GT-07604, 1-(3-((4-(1-(4-((5-chloro-4-((2-(dimethylphosphoryl)phenyl)amino)pyrimidin-2-yl)amino)-3-methoxyphenyl)piperidin-4-yl)piperazin-1-yl)methyl)phenyl)dihydropyr imidine-2,4(1H,3H)-dione]: the IC50 was 10 to 50 nM in the experiment with H2228; 100 to 500 nM in the experiment on H1975; 100 to 500 nM with MCF7; 1 to 10 nM with SR; 500 to 1000 nM with MM.1S; 500 to 1000 nM with MDA-MB-231.
`COc1cc(N2CCC(N3CCN(Cc4ccc(N5CCC(=O)NC5=O)cn4)CC3)CC2)ccc1Nc1ncc(Cl)c(Nc2ccccc2P(C)(C)=O)n1` [GT-07606, 1-(6-((4-(1-(4-((5-chloro-4-((2-(dimethylphosphoryl)phenyl)amino)pyrimidin-2-yl)amino)-3-methoxyphenyl)piperidin-4-yl)piperazin-1-yl)methyl)pyridin-3-yl)dihydropyrimidine-2,4(1H,3H)-dione]: the IC50 is 50 to 100 nM in the experiment with H2228; 100 to 500 nM in the experiment with H1975; 100 to 500 nM in the experiment on MCF7; 1 to 10 nM with SR; 500 to 1000 nM in the experiment with MM.1S; 100 to 500 nM with MDA-MB-231.
As to `COc1cc(N2CCC(N3CCN(Cc4ccc(N5CCC(=O)NC5=O)nc4)CC3)CC2)ccc1Nc1ncc(Cl)c(Nc2ccccc2P(C)(C)=O)n1` [GT-07607, 1-(5-((4-(1-(4-((5-chloro-4-((2-(dimethylphosphoryl)phenyl)amino)pyrimidin-2-yl)amino)-3-methoxyphenyl)piperidin-4-yl)piperazin-1-yl)methyl)pyridin-2-yl)dihydropyrimidine-2,4(1H,3H)-dione], the IC50 in the experiment with H2228 fell in the range of 10 to 50 nM; with H1975, 100 to 500 nM; with MCF7, 100 to 500 nM; in the experiment on SR it was 1 to 10 nM; in the experiment on MDA-MB-231, 100 to 500 nM.
`COc1cc(N2CCC(N3CCN(Cc4ccnc(C5CCC(=O)NC5=O)c4)CC3)CC2)ccc1Nc1ncc(Cl)c(Nc2ccccc2P(C)(C)=O)n1` (stereo not shown) [GT-07612, 3-(4-((4-(1-(4-((5-chloro-4-((2-(dimethylphosphoryl)phenyl)amino)pyrimidin-2-yl)amino)-3-methoxyphenyl)piperidin-4-yl)piperazin-1-yl)methyl)pyridin-2-yl)piperidine-2,6-dione]: the IC50 in the experiment with H2228 was 50 to 100 nM; in the experiment on H1975, 100 to 500 nM; in the experiment on SR, 1 to 10 nM; in the experiment on MDA-MB-231 it was 500 to 1000 nM. For the same compound, on ALK, the “Degradation of substrate protein ALK (substrate protein remaining %)” value is reported as “A (A is defined as 0% ≤ substrate protein remaining % ≤ 80%)”.
As for `COc1cc(N2CCC(N(C)Cc3cccc(N4CCC(=O)NC4=O)c3)CC2)ccc1Nc1ncc(Cl)c(Nc2ccccc2P(C)(C)=O)n1` [GT-07616, 1-(3-(((1-(4-((5-chloro-4-((2-(dimethylphosphoryl)phenyl)amino)pyrimidin-2-yl)amino)-3-methoxyphenyl)piperidin-4-yl)(methyl)amino)methyl)phenyl)dihydropyrimidine-2,4(1H,3H)-dione], the IC50 is 10 to 50 nM in the experiment on H2228; 100 to 500 nM in the experiment with H1975; 100 to 500 nM in the experiment on MCF7; 1 to 10 nM in the experiment on SR; 500 to 1000 nM in the experiment on MM.1S; 500 to 1000 nM with MDA-MB-231.
As to `COc1cc(N2CCC(N(C)Cc3cncc(N4CCC(=O)NC4=O)c3)CC2)ccc1Nc1ncc(Cl)c(Nc2ccccc2P(C)(C)=O)n1` [GT-07695, 1-(5-(((1-(4-((5-chloro-4-((2-(dimethylphosphoryl)phenyl)amino)pyrimidin-2-yl)amino)-3-methoxyphenyl)piperidin-4-yl)(methyl)amino)methyl)pyridin-3-yl)dihydropyrimidine-2,4(1H,3H)-dione], the IC50 is 100 to 500 nM in the experiment on H2228; 500 to 1000 nM in the experiment with H1975; 100 to 500 nM with MCF7; 10 to 50 nM in the experiment with SR; 100 to 500 nM in the experiment with MM.1S; 500 to 1000 nM with MDA-MB-231.
Consider `CCc1cc2c(cc1N1CCC(N3CCN(Cc4cncc(N5CCC(=O)NC5=O)c4)CC3)CC1)C(C)(C)c1[nH]c3cc(C#N)ccc3c1C2=O` [GT-07702, 8-(4-(4-((5-(2,4-dioxotetrahydropyrimidin-1(2H)-yl)pyridin-3-yl)methyl)piperazin-1-yl)piperidin-1-yl)-9-ethyl-6,6-dimethyl-11-oxo-6,11-dihydro-5H-benzo[b]carbazole-3-carbonitrile], for which the IC50 in the experiment with H2228 lay in the range of 100 to 500 nM; in the experiment on H1975, 500 to 1000 nM; in the experiment with MCF7, 500 to 1000 nM; in the experiment on SR, 1 to 10 nM; in the experiment with MM.1S it was 500 to 1000 nM; in the experiment with MDA-MB-231, 500 to 1000 nM.
As to `CCc1cc2c(cc1N1CCC(N3CCN(Cc4cc(C5CCC(=O)NC5=O)cnc4F)CC3)CC1)C(C)(C)c1[nH]c3cc(C#N)ccc3c1C2=O` (stereo not shown) [GT-07703, 8-(4-(4-((5-(2,6-dioxopiperidin-3-yl)-2-fluoropyridin-3-yl)methyl)piperazin-1-yl)piperidin-1-yl)-9-ethyl-6,6-dimethyl-11-oxo-6,11-dihydro-5H-benzo[b]carbazole-3-carbonitrile], the IC50 in the experiment with H2228 fell in the range of 50 to 100 nM; in the experiment with MCF7 it was 500 to 1000 nM; in the experiment with SR it was 1 to 10 nM; in the experiment with MDA-MB-231, 500 to 1000 nM.
Regarding `CCc1cc2c(cc1N1CCC(N3CCOCC3)CC1)C(C)(C)c1[nH]c3cc(C#N)ccc3c1C2=O` [alectinib, reference compound], the IC50 lay in the range of 5000 to 10000 nM in the experiment with H2228; 1000 to 5000 nM in the experiment on H1975; 5000 to 10000 nM in the experiment with MCF7; 10 to 50 nM with SR; 1000 to 5000 nM with MM.1S; 1000 to 5000 nM with MDA-MB-231.
As for `COc1cc(N2CCC(N3CCN(C)CC3)CC2)ccc1Nc1ncc(Cl)c(Nc2ccccc2P(C)(C)=O)n1` [brigatinib, reference compound], the IC50 with H2228 is over 10000 nM; in the experiment on H1975, over 10000 nM; with MCF7 it was 1000 to 5000 nM; in the experiment with SR, 100 to 500 nM; in the experiment on MM.1S, 1000 to 5000 nM; with MDA-MB-231, 1000 to 5000 nM.
